Test results reported in ChEMBL document CHEMBL4680225, “Design and development of ((4-methoxyphenyl)carbamoyl) (5-(5-nitrothiophen-2-yl)-1,3,4-thiadiazol-2-yl)amide analogues as Mycobacterium tuberculosis ketol-acid reductoisomerase inhibitors” (Eur J Med Chem, 2020).
≈ marks a conversion by molar mass, not a printed value.

Tested on: Mycobacterium tuberculosis
Test: Antitubercular activity against isoniazid-resistant Mycobacterium tuberculosis clinical isolate measured after 1 week by microplate alamar blue assay
Type: functional
Conditions: 168 h, time 1 weeks

Row | SMILES | MIC
1 | COc1ccc(NC(=S)Nc2nnc(-c3ccc([N+](=O)[O-])o3)s2)cc1 | 7.81 µM (≈ 2.95 µg/mL)
2 | CC[C@@H](CO)NCCN[C@@H](CC)CO [ETHAMBUTOL] | 7.63 µM (≈ 1.56 µg/mL)
3 | COc1ccc(NC(=S)Nc2nnc(-c3ccc([N+](=O)[O-])s3)s2)cc1 | 0.2 µM (≈ 0.0787 µg/mL)
4 | NNC(=O)c1ccncc1 [ISONIAZID] | 12.5 µM (≈ 1.71 µg/mL)
5 | O=[N+]([O-])c1ccc(-c2nnc(NC(=S)Nc3ccc(Cl)cc3)s2)s1 | 12.5 µM (≈ 4.97 µg/mL)
6 | O=[N+]([O-])c1ccc(-c2nnc(NC(=S)Nc3ccc(F)cc3)s2)o1 | 0.78 µM (≈ 0.285 µg/mL)
7 | CO[C@H]1/C=C/O[C@@]2(C)Oc3c(C)c(O)c4c(O)c(c(/C=N/N5CCN(C)CC5)c(O)c4c3C2=O)NC(=O)/C(C)=C\C=C\[C@H](C)[C@H](O)[C@@H](C)[C@@H](O)[C@@H](C)[C@H](OC(C)=O)[C@@H]1C [RIFAMPIN] | 0.5 µM (≈ 0.411 µg/mL)
8 | CC(=O)c1ccc(S(=O)(=O)Nc2nnc(-c3ccc([N+](=O)[O-])o3)s2)cc1 | 12.5 µM (≈ 4.93 µg/mL)
